Laboratory results reported in US9155784B2, “Anti-TNF-α therapy for the mucopolysaccharidoses and other lysosomal disorders” (Icahn School of Medicine at Mount Sinai, priority 2011, dated 2015).

System: ceramide
Assay: Trachea ceramide immunohistochemistry, MPS VI rats
Assay type: in vivo, rat
Details: 37 weeks of age
Method: Tracheas from 37-week-old normal, untreated MPS VI and treated MPS VI rats were fixed, embedded, sectioned, and prepared as described above. Sections were incubated overnight with primary mouse monoclonal anti-ceramide antibody (MID 15B4, Alexis Corporation) and visualization was accomplished using a fluorescent secondary antibody, donkey anti-goat IgG-Cy-3 (711-165-152, Jackson Laboratory). Slides were visualized and photographed with a confocal laser-scanning microscope (Carl Zeiss 510 Meta).

recombinant human N-acetylgalactosamine-4-sulfatase [ERT]
ceramide staining in tracheal epithelial cells: strong ceramide staining
